Results taken from PubChem BioAssay (NCI).
Values joined by “and” are separate entries in the source; they are usually repeats but may differ in a detail not shown here. Equal entries are not always repeated.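 How tested: cells in 96-well plates exposed to compound for 48 hours at five concentrations. GI50: concentration for 50% inhibition of growth. Definition used: TGI = concentration required for complete inhibition of growth.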

Experiments:
Experiment in all cases: growth of human tumour cells (NCI), 48 h
ACHN renal = system: ACHN renal
DU-145 prostate = system: DU-145 prostate
IGROV1 ovarian = system: IGROV1 ovarian
NCI-H23 lung = system: NCI-H23 lung
OVCAR-4 ovarian = system: OVCAR-4 ovarian
RXF 393 renal = system: RXF 393 renal
SF-539 CNS = system: SF-539 CNS
SK-MEL-28 melanoma = system: SK-MEL-28 melanoma
T-47D breast = system: T-47D breast
UACC-62 melanoma = system: UACC-62 melanoma

SMILES	GI50 (ACHN renal)	TGI (ACHN renal)	GI50 (DU-145 prostate)	TGI (DU-145 prostate)	GI50 (IGROV1 ovarian)	TGI (IGROV1 ovarian)	GI50 (NCI-H23 lung)	TGI (NCI-H23 lung)	GI50 (OVCAR-4 ovarian)	TGI (OVCAR-4 ovarian)	GI50 (RXF 393 renal)	TGI (RXF 393 renal)	GI50 (SF-539 CNS)	TGI (SF-539 CNS)	GI50 (SK-MEL-28 melanoma)	TGI (SK-MEL-28 melanoma)	GI50 (T-47D breast)	TGI (T-47D breast)	GI50 (UACC-62 melanoma)	TGI (UACC-62 melanoma)
NC(N)=N/N=C/c1c(-c2ccncc2)nc2sc(Cl)cn12	9.28 µM	24.5 µM	17.5 µM	33.3 µM	42.7 µM	> 100 µM	10 µM	24.1 µM	1.57 µM	6.16 µM	15.2 µM	33.2 µM	7.06 µM	13.7 µM	14.3 µM	38.8 µM	28.6 µM	56.6 µM	1.88 µM	4.91 µM
CCN(CC)CCOc1ccc2c(C)c(C(=O)OC)oc2c1C(=O)/C=C/c1ccc(OC)cc1	1.85 µM	5.25 µM	18.5 µM	34.7 µM	0.246 µM	2.75 µM	2.93 µM	8.34 µM	2.43 µM	6.85 µM	13.8 µM	31.3 µM	16.3 µM	32.2 µM	2.89 µM	11.2 µM	12.9 µM	38.5 µM	2.24 µM	7.75 µM
COc1cccc(C2C(C#N)=C(N)Oc3cc4c(cc32)OCO4)c1 (stereo not drawn)	2.26 µM	> 100 µM	0.0845 µM	2.78 µM	0.305 µM	30.8 µM	0.0694 µM	15.8 µM	0.457 µM	> 100 µM	0.029 µM	0.0927 µM	0.0401 µM	> 33.1 µM	0.0813 µM	32.6 µM	0.0502 µM	28 µM	0.0505 µM	> 53.8 µM
Cc1ccc(C2=C(Cl)C(=O)C(c3ccc(C)cc3)=C(Cl)C2=O)cc1		> 100 µM		> 100 µM		> 100 µM		> 100 µM		> 100 µM		> 100 µM		> 100 µM		> 100 µM		> 100 µM		> 100 µM
c1cncc(C2ONC3=NCCN32)c1 (stereo not drawn)	8 µM	38.3 µM	15.8 µM	> 100 µM	24 µM	> 100 µM	54 µM	> 100 µM	> 100 µM	> 100 µM	20.9 µM	96.3 µM	28.9 µM	> 100 µM	> 100 µM	> 100 µM	40 µM	> 100 µM	46.7 µM	> 100 µM
O=C(Oc1ccc2c(c1)CN(Cc1ccccc1)CO2)c1ccccc1		32.9 µM		36.7 µM		27 µM		30 µM		32.8 µM		30.4 µM		32.3 µM		41.2 µM		70 µM		30.5 µM
CCCCC[C@@H](C/C=C/CCC(=O)NC/C(=C/Cl)[C@H]1C(=O)C(C)(C)C(=O)[C@@H](C)[C@@]1(C)O)OC	18 µM	32.6 µM	16.8 µM	31.8 µM	16.4 µM	31.3 µM	17 µM	33.9 µM	20 µM	45.8 µM	17.4 µM	34.2 µM	19.7 µM	35.2 µM	18.1 µM	33.8 µM	15.4 µM	34.6 µM	15.6 µM	29.1 µM
O=C(c1ccccc1)C(Br)C(Br)c1ccccc1 (stereo not drawn)	1.86 µM	3.38 µM	3.08 µM	9.63 µM	2.94 µM	12.2 µM	10.4 µM	23.8 µM	1.66 µM	3.08 µM	1.89 µM	3.51 µM	10.7 µM	22.6 µM	3.59 µM	13 µM	2.59 µM	6.26 µM	11.8 µM	24.2 µM
COc1cc(N(CCC#N)CCC#N)ccc1/C(N=Nc1ccc(C(=O)O)cc1)=N/NC(=O)c1cc(Br)ccc1O	108 µg/mL	> 150 µg/mL	> 150 µg/mL	> 150 µg/mL	78.1 µg/mL	> 150 µg/mL	> 150 µg/mL	> 150 µg/mL	30 µg/mL	65.5 µg/mL	66.3 µg/mL	> 150 µg/mL	85.8 µg/mL	> 150 µg/mL	> 150 µg/mL	> 150 µg/mL	64.4 µg/mL	> 150 µg/mL	149 µg/mL	> 150 µg/mL
Cn1ccnc1C(=O)/C=C/c1ccc(C(=O)Nc2c(F)c(F)c(F)c(F)c2F)cc1	1.65 µM	3.01 µM	1.64 µM	3.11 µM	1.75 µM	3.98 µM	2.01 µM	5.35 µM	1.53 µM	4.52 µM	1.66 µM	3.22 µM	1.67 µM	3.13 µM	2.17 µM	5.19 µM	1.29 µM	3.4 µM	2.08 µM	5.17 µM
Fc1ccc(-c2nn3c(COc4ccc(Cl)cc4)nnc3s2)cc1Oc1ccccc1	31.4 µM	> 53.1 µM	48.5 µM	> 100 µM	22.2 µM	> 54.1 µM	20.4 µM	40.2 µM	50.4 µM	> 100 µM	26.3 µM	87.5 µM	22.5 µM	> 55.5 µM	37 µM	> 100 µM	28 µM	> 66.3 µM	32.4 µM	> 63.4 µM
CCCCCCCCCCCCOC1C(C(CC(=O)N2CCN(Cc3ccc4c(c3)OCO4)CC2)NS(=O)(=O)c2cc(Cl)cc(Cl)c2)OC2OC(C)(C)OC21 (stereo not drawn)	33.8 µM	> 100 µM	25.5 µM	> 100 µM	14 µM	> 100 µM	17.4 µM	> 100 µM	18.1 µM	> 100 µM	6.43 µM	28.1 µM	43 µM	> 100 µM	> 100 µM	> 100 µM	28.9 µM	> 100 µM	> 63.3 µM	> 100 µM
COc1cc(/C=C\c2cc(OC)c(OC)c(OC)c2)cc(NS(=O)(=O)c2ccc(Cl)cc2)c1OC	0.586 µM	29.9 µM	0.507 µM	> 100 µM	0.904 µM	> 100 µM	0.71 µM	> 100 µM	1.53 µM	> 100 µM	0.272 µM	1.24 µM	0.303 µM	2.58 µM	1.14 µM	> 100 µM	0.381 µM	> 100 µM	0.435 µM	36.7 µM
CC1=C2[C@@H](CC1)[C@]1(C)O[C@@](C3CC3)(C[C@H]1OC(=O)CO)[C@H]2OC(=O)/C=C/c1ccccc1	0.0339 µM	13.2 µM	16.9 µM	30.9 µM	19.7 µM	42.7 µM	16.6 µM	36 µM	14.5 µM	29.2 µM	0.0218 µM	0.858 µM	16.6 µM	31.6 µM	18.6 µM	36.3 µM	12.1 µM	36.6 µM	14.3 µM	29.4 µM
CC1OC(OC2C(O[C@H]3CC[C@@]4(C)C(=CC[C@H]5[C@@H]6C[C@@H]7O[C@]8(CC[C@@H](C)CO8)[C@@H](C)[C@@H]7[C@@]6(C)CC[C@@H]54)C3)OC(CO)C(OC3OC(CO)C(O)C3O)C2O)C(O)C(O)C1O (stereo partly drawn)		1.58 µM and 2.12 µM		2.26 µM and 2.15 µM	0.45 µM	1.61 µM and 1.62 µM	1.23 µM	1.6 µM and 2.47 µM	1.08 µM	2.2 µM and 2.26 µM	0.294 µM	1.83 µM and 0.962 µM	0.343 µM	1.3 µM and 1.08 µM	0.21 µM	1.37 µM and 0.522 µM	1.39 µM	2.68 µM	0.349 µM	1.5 µM and 1.07 µM
CCSc1ncc(Br)c(Sc2nc(N)nc3nc[nH]c23)n1	6.58 µM	> 100 µM	2.95 µM	60.9 µM	2.7 µM	30 µM	2.69 µM	> 100 µM	2.29 µM	30.5 µM	5.37 µM	> 100 µM	3.52 µM	31.5 µM	46.9 µM	> 100 µM	3.07 µM	> 100 µM	2.37 µM	20.4 µM
Nc1ncnc2c1nc(Cl)n2C1OC(CO)C(O)C1O (stereo not drawn)		> 100 µM		> 93.3 µM		> 100 µM		> 100 µM		> 100 µM		4.29 µM		> 94.7 µM		> 100 µM		8.15 µM		> 100 µM
Oc1ccccc1C=Nc1nc(OCc2ccccc2)nc2[nH]ncc12	28 µM	> 100 µM	33.9 µM	> 100 µM	34.8 µM	> 100 µM	15.4 µM	79.7 µM	23.5 µM	69.6 µM	4.56 µM	33.4 µM	22.1 µM	43 µM	22.2 µM	43.1 µM	14 µM	46.3 µM	13.6 µM	28.9 µM
